From article PMC9213739, “Substrates and Loaded Iron Ions Relative Position Influence the Catalytic Characteristics of the Metalloenzymes Angelica archangelica Flavone Synthase I and Camellia sinensis Flavonol Synthase” (Frontiers in Pharmacology, 2022)

Legend:
[1] = target: T1, CaFLS (Camellia sinensis, UniProt A0A3G1RNB1); assay: UPLC-MS product formation, Lineweaver-Burk; assay type: biochemical; details: tamarixetin formation (main product); Tris-HCl pH 7.5, 23 °C
T1 construct: gene FLS; synthetic gene in pET-28a(+) (NcoI/XhoI), expressed in E. coli BL21(DE3); 331 residues; mutants carry fragments of AnFNS I
Excerpt: (§1) UPLC-MS product formation, Lineweaver-Burk on CaFLS

[2] = target: T1, CaFLS; assay: UPLC-MS product formation, Lineweaver-Burk; assay type: biochemical; details: Tris-HCl pH 7.5, 23 °C
Excerpt: as §1

T1 sequence (A0A3G1RNB1 entry or part of it): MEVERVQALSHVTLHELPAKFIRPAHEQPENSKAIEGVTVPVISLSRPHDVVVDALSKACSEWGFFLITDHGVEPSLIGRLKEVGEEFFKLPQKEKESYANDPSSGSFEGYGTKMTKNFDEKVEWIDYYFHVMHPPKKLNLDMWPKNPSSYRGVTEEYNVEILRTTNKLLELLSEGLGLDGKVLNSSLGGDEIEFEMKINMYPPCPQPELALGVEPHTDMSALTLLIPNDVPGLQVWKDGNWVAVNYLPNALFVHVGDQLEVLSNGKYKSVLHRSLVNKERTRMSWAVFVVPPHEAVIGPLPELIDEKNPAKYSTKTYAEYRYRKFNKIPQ

Km [1]: 68.5 µM | Km ([2]; diosmetin formation (main product)): 65.4 µM | Km ([2]; tamarixetin formation (main product)): 66.4 µM
SMILES: COc1ccc([C@@H]2CC(=O)c3c(O)cc(O)cc3O2)cc1O [hesperetin]
